Laboratory results taken from ChEMBL document CHEMBL2074574, “The interaction and transport of beta-lactam antibiotics with the cloned rat renal organic anion transporter 1” (J Pharmacol Exp Ther, 1999).

Legend:
[1] = biological target: T1, Solute carrier family 22 member 6 (Rattus norvegicus, UniProt O35956); test: TP_TRANSPORTER: inhibition of PAH uptake (PAH: 2 uM, Chloramphenicol: 2000 uM) in Xenopus laevis oocytes; type: functional, cell-based; details: oocyte
T1 sequence (O35956 whole entry): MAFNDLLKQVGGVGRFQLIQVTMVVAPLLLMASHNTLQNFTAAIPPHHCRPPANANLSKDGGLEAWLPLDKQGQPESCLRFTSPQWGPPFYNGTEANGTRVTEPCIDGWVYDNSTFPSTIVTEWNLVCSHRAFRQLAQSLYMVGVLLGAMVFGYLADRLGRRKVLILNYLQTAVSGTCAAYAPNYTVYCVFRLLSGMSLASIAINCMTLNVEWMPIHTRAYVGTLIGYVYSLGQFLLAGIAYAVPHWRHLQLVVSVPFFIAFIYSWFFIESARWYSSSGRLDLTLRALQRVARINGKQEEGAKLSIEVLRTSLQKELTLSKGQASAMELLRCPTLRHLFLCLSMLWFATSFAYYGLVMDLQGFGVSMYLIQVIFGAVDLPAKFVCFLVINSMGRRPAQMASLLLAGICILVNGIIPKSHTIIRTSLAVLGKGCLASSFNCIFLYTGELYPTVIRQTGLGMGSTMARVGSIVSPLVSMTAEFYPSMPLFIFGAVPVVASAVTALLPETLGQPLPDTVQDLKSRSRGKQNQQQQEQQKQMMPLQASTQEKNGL

[2] = biological target: T1, Solute carrier family 22 member 6; test: TP_TRANSPORTER: inhibition of PAH uptake (PAH: 2 uM, Amoxicillin: 2000 uM) in Xenopus laevis oocytes; type: functional, cell-based; details: oocyte
[3] = biological target: T1, Solute carrier family 22 member 6; test: TP_TRANSPORTER: inhibition of PAH uptake (PAH: 2 uM, Cefsulodin: 2000 uM) in Xenopus laevis oocytes; type: functional, cell-based; details: oocyte
[4] = biological target: T1, Solute carrier family 22 member 6; test: TP_TRANSPORTER: inhibition of PAH uptake (PAH: 2 uM, Streptomycin: 2000 uM) in Xenopus laevis oocytes; type: functional, cell-based; details: oocyte
[5] = biological target: T1, Solute carrier family 22 member 6; test: TP_TRANSPORTER: inhibition of PAH uptake (PAH: 2 uM, Gentamicin: 2000 uM) in Xenopus laevis oocytes; type: functional, cell-based; details: oocyte
[6] = biological target: T1, Solute carrier family 22 member 6; test: TP_TRANSPORTER: inhibition of PAH uptake in Xenopus laevis oocytes; type: functional, cell-based, Oocyte
[7] = biological target: T1, Solute carrier family 22 member 6; test: TP_TRANSPORTER: inhibition of PAH uptake (PAH: 2 uM, OFLX: 2000 uM) in Xenopus laevis oocytes; type: functional, cell-based; details: oocyte
[8] = biological target: T1, Solute carrier family 22 member 6; test: TP_TRANSPORTER: inhibition of PAH uptake (PAH: 2 uM, Cloxacillin: 2000 uM) in Xenopus laevis oocytes; type: functional, cell-based; details: oocyte
[9] = biological target: T1, Solute carrier family 22 member 6; test: TP_TRANSPORTER: inhibition of PAH uptake (PAH: 2 uM, Nafcillin: 2000 uM) in Xenopus laevis oocytes; type: functional, cell-based; details: oocyte
[10] = biological target: T1, Solute carrier family 22 member 6; test: TP_TRANSPORTER: inhibition of PAH uptake (PAH: 2 uM, Piperacillin: 2000 uM) in Xenopus laevis oocytes; type: functional, cell-based; details: oocyte
[11] = biological target: T1, Solute carrier family 22 member 6; test: TP_TRANSPORTER: inhibition of PAH uptake (PAH: 2 uM, Cinoxacin: 2000 uM) in Xenopus laevis oocytes; type: functional, cell-based; details: oocyte
[12] = biological target: T1, Solute carrier family 22 member 6; test: TP_TRANSPORTER: inhibition of PAH uptake (PAH: 2 uM, Ceftazidime: 2000 uM) in Xenopus laevis oocytes; type: functional, cell-based; details: oocyte
[13] = biological target: T1, Solute carrier family 22 member 6; test: TP_TRANSPORTER: inhibition of PAH uptake (PAH: 2 uM, Norfloxacin: 2000 uM) in Xenopus laevis oocytes; type: functional, cell-based; details: oocyte
[14] = biological target: T1, Solute carrier family 22 member 6; test: TP_TRANSPORTER: inhibition of PAH uptake (PAH: 2 uM, Vancomycin: 2000 uM) in Xenopus laevis oocytes; type: functional, cell-based; details: oocyte

With `O=C(N[C@H](CO)[C@H](O)c1ccc([N+](=O)[O-])cc1)C(Cl)Cl` [CHLORAMPHENICOL] the Activity [1] was “inhibitor [(at a rough estimate) 75% of control]”.

`CC1(C)S[C@@H]2[C@H](NC(=O)[C@H](N)c3ccc(O)cc3)C(=O)N2[C@H]1C(=O)O` [AMOXICILLIN] was tested, and the Activity [2] was “inhibitor [(at a rough estimate) 20 % of control]”.

`NC(=O)c1cc[n+](CC2=C(C(=O)O)N3C(=O)[C@@H](NC(=O)[C@@H](c4ccccc4)S(=O)(=O)[O-])[C@H]3SC2)cc1` [CEFSULODIN] was tested, and the Activity [3] was “inhibitor [(at a rough estimate) 10 % of control]”.

For `[H]/N=C(/N)N[C@H]1[C@H](O)[C@@H](O)[C@H](O[C@@H]2O[C@@H](C)[C@](O)(C=O)[C@H]2O[C@@H]2O[C@@H](CO)[C@H](O)[C@@H](O)[C@@H]2NC)[C@@H](N/C(N)=N\[H])[C@@H]1O` [STREPTOMYCIN], the Activity [4] was “is not an inhibitor [-]”.

In the case of GENTAMICIN, the Activity [5] is reported as “is not an inhibitor [-]”.

`CC1=C(C(=O)O)N2C(=O)[C@@H](NC(=O)[C@H](N)c3ccccc3)[C@H]2SC1` [CEPHALEXIN ANHYDROUS] gave a Ki [6] of 2.31 mM.

For `CC1COc2c(N3CCN(C)CC3)c(F)cc3c(=O)c(C(=O)O)cn1c23` (centres undefined) [OFLOXACIN], the Activity [7] was “is not an inhibitor [-]”.

In the case of `Cc1onc(-c2ccccc2Cl)c1C(=O)N[C@@H]1C(=O)N2[C@@H]1SC(C)(C)[C@@H]2C(=O)O` [CLOXACILLIN], the Activity [8] is reported as “inhibitor [(at a rough estimate) 5 % of control]”.

For `CCOc1ccc2ccccc2c1C(=O)N[C@@H]1C(=O)N2[C@@H]1SC(C)(C)[C@@H]2C(=O)O` [NAFCILLIN], the Activity [9] was “inhibitor [(at a rough estimate) <5 % of control]”.

With `CCN1CCN(C(=O)N[C@@H](C(=O)N[C@@H]2C(=O)N3[C@@H]2SC(C)(C)[C@@H]3C(=O)O)c2ccccc2)C(=O)C1=O` [PIPERACILLIN] the Activity [10] was “inhibitor [(at a rough estimate) 5 % of control]”.

For `CCn1nc(C(=O)O)c(=O)c2cc3c(cc21)OCO3` [CINOXACIN], the Activity [11] was “inhibitor [(at a rough estimate) 5 % of control]”.

For `CC(C)(O/N=C(\C(=O)N[C@@H]1C(=O)N2C(C(=O)[O-])=C(C[n+]3ccccc3)CS[C@H]12)c1csc(N)n1)C(=O)O` [CEFTAZIDIME], the Activity [12] was “inhibitor [(at a rough estimate) 45 % of control]”.

`CCn1cc(C(=O)O)c(=O)c2cc(F)c(N3CCNCC3)cc21` [NORFLOXACIN] was tested, and the Activity [13] was “is not an inhibitor [-]”.

`CN[C@H](CC(C)C)C(=O)N[C@H]1C(=O)N[C@@H](CC(N)=O)C(=O)N[C@H]2C(=O)N[C@H]3C(=O)N[C@H](C(=O)N[C@H](C(=O)O)c4cc(O)cc(O)c4-c4cc3ccc4O)[C@H](O)c3ccc(c(Cl)c3)Oc3cc2cc(c3O[C@@H]2O[C@H](CO)[C@@H](O)[C@H](O)[C@H]2O[C@H]2C[C@](C)(N)[C@H](O)[C@H](C)O2)Oc2ccc(cc2Cl)[C@H]1O` [VANCOMYCIN] was tested, and the Activity [14] was “is not an inhibitor [-]”.
